O=C1CCC(c2ccccc2)=NN1
solubility (mole fraction)
Details	in DMSO	in ethanol	in ethyl acetate	in ethylene glycol	in isopropanol	in n-butanol	in propylene glycol	in sec-butanol	in transcutol	in water
293.2 K	0.637	0.00407	0.00878	0.0074	0.0031	0.00474	0.00654	0.00512	0.423	7.24e-07
298.2 K	0.647	0.00466	0.00994	0.00836	0.00378	0.0053	0.00732	0.00555	0.451	9.18e-07
303.2 K	0.658	0.00529	0.0111	0.00921	0.0046	0.00601	0.00846	0.00618	0.476	1.13e-06
308.2 K	0.668	0.00607	0.0128	0.0101	0.00555	0.0067	0.00951	0.00687	0.502	1.37e-06
313.2 K	0.677	0.00696	0.0145	0.0109	0.00651	0.00768	0.0103	0.00778	0.524	1.61e-06

Details	solubility (mole fraction)
in PEG-400, 293.2 K	0.0585
in PEG-400, 298.2 K	0.0646
in PEG-400, 303.2 K	0.0709
in PEG-400, 308.2 K	0.078
in PEG-400, 313.2 K	0.0847

Source: BigSolDB 2.1
